Measured values as given in patent US20030181373A1, “Vascular relaxation agents” (priority 2000, published 2003).

What was measured:
[1] = test system: extirpated mouse lymph duct (efferent lymph duct of iliac lymph node); assay: Test for inhibition of spontaneous contraction of lymph duct (perfused extirpated mouse lymph duct, video microscope); design: species or system DDY mice
Protocol: The evaluation method of relaxation or contraction response is conducted based on a value (relative spontaneous contraction suppression) obtained by dividing the number of spontaneous contractions per minute observed after drug administration until returning to even spontaneous contractions by the average number of spontaneous contractions per minute before drug administration. For example, supposing that it takes 3 minutes to return to even spontaneous contractions after drug administration and that the contractions occur 9 times during that period, the value after drug administration is 3 times/minute. Therefore, if the frequency before drug administration is 15 times/minute, the suppression effect is represented as 20%, which is calculated by dividing 3 by 15 and standardizing the quotient as a percent.
Pentbarbital sodium (50 mg/kg) was intraperitoneally administered to DDY mice (male, 5 to 6 weeks old) so as to be anesthetized and sacrificed, and an efferent lymph duct of an iliac lymph node (with a maximum inner diameter of 300 μm) was extirpated. The extirpated lymph duct was preserved in a chilled Krebs solution (120 mM NaCl, 5.9 mM KCl, 2.5 mM CaCl2, 1.2 mM MgSO4, 1.2 mM NaH2PO4, 5.5 mM glucose, 25.0 mM NaHCO3) at 4° C.
The inner diameter of the perfused extirpated mouse lymph duct specimen, as obtained above, was measured using a video microscope system (FIG. 1). An internal pressure of 3 to 4 cm H2O was supplied to the specimen to induce spontaneous contraction.
Effects of PTHrP(1-34) on spontaneous contraction of the lymph duct were examined and compared with a control, in the presence of NO synthesis inhibitor (L-NAME, 3×10^−5 M), L-arginine (10^−3 M) as a substrate of […], glibenclamide 10^−6 M as an ATP-sensitive K^+ channel inhibitor, and PTHrP(7-34) as a PTH receptor antagonist.

[2] = test system: extirpated human medullary arteriole; assay: Relaxation effects on an extirpated human medullary arteriole (perfused specimen); settings: control 127 μm
Protocol: Resistance vessel extirpated from femoral cancellous bone and the inside of femoral bone marrow during an artificial joint replacement surgery of a human (malum coxae) was used as a sample of human medullary arteriole. The extirpated femoral concellous bone and femoral bone marrow were preserved in a chilled Krebs solution (at 4° C. or lower), and thereafter used in the following in vitro experiment.
A perfused specimen from this sample was prepared in the same manner as the perfused specimen of the extirpated mouse miniature lymph duct in Example 1.
An image of the diameter of the specimen was captured through an object lens, a taking lens, and a CCD camera in the same manner as Example 2.
With respect to the perfused specimen as prepared above, relaxation effect of PTHrP(1-34)(10^−8M) in the presence of vasoconstricting norepinephrine (NE, 10^−6 M) was examined.

[3] = test system: extirpated rat medullary arteriole; assay: Inner diameter changes of perfused medullary arteriole specimen of rat thigh bone; design: species or system Wistar rats
Protocol: Wistar rats (male, 5 to 6 weeks old) were anesthetized with pentbarbital ([…] of intraperitoneal administration) and sacrificed. All the skin, muscle, and ligament attached to the thigh bones were removed so as to expose and extirpate the thigh bones. The extirpated thigh bones were preserved in Krebs solution (at approximately 4° C.) for approximately 30 minutes. Strength was applied along the long axis direction of the thigh bone using mosquito forceps so as to crack the thigh bone along the long axis. Then, the cracked thigh bone was place into a petri dish (containing Krebs solution at approximately 4° C.) which was coated with SILIGUARD. Under a stereoscopic microscope, the thigh bone was removed using microsurgical forceps (commercially available forceps that was further sharpened by a grinder) to expose the bone marrow.
Krebs solution (at approximately 4° C.) was filled into a 1 ml syringe (having a 27G needle attached thereto) and the inside of the bone marrow was washed with the Krebs solution so as to remove myeloid cells adhering to blood vessels.
As a result, a blood vessel network was observed (FIG. 8), and arterioles indicated by black wedge-shaped arrowheads were extirpated under a stereoscopic microscope using micro cusps and microsurgical forceps.
The extirpated medullary arteriole was fixed in an apparatus for preparing a perfused specimen (FIG. 1, vessel chamber 9), and a hydrostatic pressure was supplied thereto so as to wash and remove blood from the arteriole lumen. The inner pressure of the specimen was kept at 40 mmHg during the experiment and the exposed side of the specimen was continuously perfused (12 ml/min) with Krebs solution which was kept at 37° C. and pH of 7.4.
An image of the diameter of the specimen was captured through a object lens, a taking lens, and a CCD camera.

COC(=O)[C@@H](N)CCCNC(=N)N[N+](=O)[O-] [L-NAME, N^G-nitro L-arginine methyl ester]
effect on inhibition of spontaneous lymph duct contraction by PTHrP(1-34), typical response ([1]; L-NAME 3×10^−5 M, PTHrP(1-34) 3×10^−9 M, FIG. 3B): cancelled out
effect on lymph duct relaxation by PTHrP(1-34), four measurements ([1]; in the presence of L-NAME (3×10^−5 M), FIG. 4): significantly cancelled out

N=C(N)NCCC[C@H](N)C(=O)O [L-arginine]
effect of simultaneous treatment with L-NAME on the cancellation effect, typical response ([1]; L-arginine 10^−3 M with L-NAME 3×10^−5 M, PTHrP(1-34) 3×10^−9 M, FIG. 3C): suppressed the cancellation effect of L-NAME
effect of simultaneous treatment with L-NAME on the cancellation effect, four measurements ([1]; L-arginine (10^−3 M) with L-NAME (3×10^−5 M), FIG. 4): significantly suppressed the cancellation effect of L-NAME

NC[C@H](O)c1ccc(O)c(O)c1 [NE, norepinephrine]
inner diameter of perfused specimen in the presence of NE ([2]; NE 10^−6 M, internal pressure 55 mmHg, FIG. 11(b)): 33 μm

COc1ccc(Cl)cc1C(=O)NCCc1ccc(S(=O)(=O)NC(=O)NC2CCCCC2)cc1 [glibenclamide]
effect on lymph duct relaxation caused by PTHrP(1-34), typical response ([1]; glibenclamide 10^−6 M, PTHrP(1-34) 3×10^−9 M, FIG. 5B): cancelled out
effect on lymph duct relaxation caused by PTHrP(1-34), four measurements ([1]; glibenclamide (10^−6 M), FIG. 6): significantly cancelled out

PTHrP(1-34): peptide comprising a sequence of 1 to 34 amino acids relative to the amino acid sequences of the PTHrP
inner diameter of perfused specimen after addition of PTHrP(1-34) in the presence of NE ([2]; PTHrP(1-34) 10^−8 M with NE 10^−6 M, NE alone 33 μm, FIG. 11(c)): 121 μm
frequency of spontaneous contraction after drug administration ([1]; 3×10^−10 of PTHrP(1-34), 15 times/minute before drug administration, FIG. 2A): 13 times/minute
effect on spontaneous contractions of the lymph duct at increased concentration ([1]; PTHrP(1-34) 10^−9 M, 3×10^−9 M, in addition to dilation responses, FIG. 2A): stopped remarkably
effect of increasing PTHrP(1-34) on lymph duct (relative spontaneous contraction frequency ratio) ([1]; control without L-NAME and L-arginine, four measurements, FIG. 4): relaxed the lymph duct
tachyphylaxis on repeated dose response ([1]; same specimen washed for 1 hour, dose response re-examined, FIG. 2B): induced remarkable tachyphylaxis
dose dependence of dilation effect ([3]; 10^−10 to 10^−8 M, FIG. 10): dose dependent
inner diameter at maximum dilation (relaxation) after administration ([3]; PTHrP(1-34) 10^−8 M, dilated from 66 μm, passive diameter 120 μm, internal pressure 40 mmHg, FIG. 9): 114 μm
dose at which dilation response was induced ([3]; dose range 10^−10 to 10^−8 M, FIG. 10): 10^−9 M

PTHrP(7-34): peptide having a sequence comprising from 7 to 34 amino acids of PTHrP; PTH/PTHrP receptor antagonist
effect on lymph duct relaxation by PTHrP(1-34), four individual examples ([1]; PTHrP(7-34) 10^−7 M, PTHrP(1-34) 10^−10 to 3×10^−9 M, FIG. 7): significantly cancelled out
